From patent publication US20200131270A1, “COMBINATION USE OF INHIBITOR TARGETING PD-1/PD-L1 AND COX-2 INHIBITOR” (priority 2017, published 2020)

Assays:
[1] = system: canine PBMCs; assay: Cytokine production from canine PBMCs stimulated with SEB and anti-CD28 (ELISA); assay type: cell-based; conditions: PGE2 2.5 μM; SEB + anti-CD28, 3 days
[2] = system: PBMCs derived from uninfected cattle; assay: mRNA expression in bovine PBMCs (real-time PCR); assay type: cell-based
Experimental: Using the synthesized cDNA as a template, real-time PCR was performed with LightCycler480 System II (Roche) in a 10 μl reaction solution containing SYBR Premix DimerEraser (TaKaRa) and 3 pmol each of the primers specific to individual genes. Then, changes in expression levels of individual genes were observed. After 45 cycles of thermal denaturation, annealing and extension, the temperature was raised from 65° C. to 95° C. at 0.1° C./sec for melting curve analysis. The melting temperatures of amplified products were measured to confirm specificity. For each sample, expression levels of genes ACTB and GAPDH were quantified as internal standards. […] Then, real-time PCR was performed using PDL1 specific primers.

[3] = system: PBMCs derived from uninfected cattle; assay: PD-L1 protein expression in bovine PBMCs (flow cytometry); assay type: cell-based; conditions: PGE2 added, 24 hours
[4] = system: PBMCs derived from uninfected cattle; assay: PBMC culture under anti-CD3/anti-CD28 stimulation: cell proliferation (CFSE) and cytokine production (ELISA); conditions: 3 days
[5] = system: BLV provirus; assay type: cell-based, cattle
[6] = PGE2 25 nM, 250 nM and 2,500 nM

SMILES: CCCCC[C@H](O)/C=C/[C@H]1[C@H](O)CC(=O)[C@@H]1C/C=C\CCCC(=O)O [PGE2, prostaglandin E2]
- IFN-γ production from canine PBMCs [1]: significantly decreased
- IL-2 production from canine PBMCs [1]: significantly decreased
- expression level of Foxp3 ([2]; PGE2 2,500 nM, 3 days): significantly increased
- expression level of IFNγ ([2]; PGE2 2,500 nM, 3 days): significantly decreased
- expression level of IL-2 ([2]; PGE2 2,500 nM, 3 days): significantly decreased
- expression level of IL-10 ([2]; PGE2 2,500 nM, 3 days): significantly increased
- expression level of STAT3 ([2]; PGE2 2,500 nM, 3 days): significantly increased
- expression level of TGFβ1 ([2]; PGE2 2,500 nM, 3 days): significantly increased
- expression level of TNFα ([2]; PGE2 2,500 nM, 3 days): significantly decreased
- expression of PD-L1 mRNA ([2]; PGE2 added, 24 hours): significantly increased
- expression of PD-L1 protein [3]: significantly increased
- IFN-γ production [4, 6]: significantly inhibited
- proliferation of CD4^+ cells [4, 6]: significantly inhibited
- proliferation of CD8^+ cells [4, 6]: significantly inhibited
- TNF-α production ([4]; PGE2 2,500 nM): significantly inhibited
- BLV provirus load in PBMCs [5]: increase significantly
